Reference: PubChem BioAssay (NCI)
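Following 48 hours of exposure in 96-well plates, responses at five concentrations were used to interpolate endpoints linearly. GI50 marks 50% less growth. TGI is the concentration that stops growth completely.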

What was measured:
Experiment in all cases: inhibition of tumour cell growth, NCI panel, 48 h
M14 melanoma = test system: M14 melanoma
U251 CNS = test system: U251 CNS
CAKI-1 renal = test system: CAKI-1 renal
SR leukemia = test system: SR leukemia
UACC-62 melanoma = test system: UACC-62 melanoma
COLO 205 colon = test system: COLO 205 colon
NCI-H23 lung = test system: NCI-H23 lung
OVCAR-3 ovarian = test system: OVCAR-3 ovarian
KM12 colon = test system: KM12 colon
MCF7 breast = test system: MCF7 breast

SMILES | TGI (M14 melanoma) | TGI (U251 CNS) | TGI (CAKI-1 renal) | TGI (SR leukemia) | TGI (UACC-62 melanoma) | TGI (COLO 205 colon) | TGI (NCI-H23 lung) | TGI (OVCAR-3 ovarian) | TGI (KM12 colon) | TGI (MCF7 breast) | GI50 (M14 melanoma) | GI50 (U251 CNS) | GI50 (CAKI-1 renal) | GI50 (SR leukemia) | GI50 (UACC-62 melanoma) | GI50 (COLO 205 colon) | GI50 (NCI-H23 lung) | GI50 (OVCAR-3 ovarian) | GI50 (KM12 colon) | GI50 (MCF7 breast)
COC(=O)C1C2CC3C(OC(=O)C31)C2I (centres undefined) | > 100 µM | > 100 µM | > 100 µM | > 100 µM | > 100 µM | > 100 µM | > 100 µM | > 100 µM | > 100 µM | – | – | – | – | – | – | – | – | – | – | –
Cc1cc(NC(=O)NC(=O)c2ccccc2[N+](=O)[O-])ccc1Oc1ncc(Cl)cn1 | 35.7 µM | 4.42 µM | – | – | > 31.6 µM | > 20 µM | > 80.5 µM | 1.34 µM | 13 µM | > 100 µM | – | – | – | – | – | – | – | – | – | –
COC1OC(COCc2ccc(Cl)cc2)C(OCc2ccc(Cl)cc2)C1O (centres undefined) | 31 µM | 29.1 µM | 54.2 µM | – | 31.9 µM | 34.3 µM | 31.9 µM | 42.8 µM | 29.3 µM | – | – | – | – | – | – | – | – | – | – | –
COC(=O)C1C(=O)O[C@@H](c2ccc(OC)cc2)C1C(=O)OC (some centres undefined) | > 100 µM | > 100 µM | > 100 µM | > 100 µM | > 100 µM | > 100 µM | > 100 µM | > 100 µM | > 100 µM | – | – | – | – | – | – | – | – | – | – | –
C=C1C(=O)O[C@H]2[C@H]1CC/C(COC(=O)NCc1c[nH]c3ccc(OC)cc13)=C\CC[C@@]1(C)O[C@@H]21 | 3.4 µM | 14 µM | 3.28 µM | 4.38 µM | 3.69 µM | 2.71 µM | 9.33 µM | 2.1 µM | 14 µM | – | 1.36 µM | 3.39 µM | 1.46 µM | 0.331 µM | 1.7 µM | 1.22 µM | 3 µM | 0.695 µM | 3.54 µM | –
CCCCCCCCC(=O)CCCCCCCCC(=O)O | 82.8 µM | > 100 µM | > 100 µM | 42.5 µM | 54.6 µM | 59.8 µM | 85.8 µM | 40.1 µM | 32 µM | – | – | – | – | – | – | – | – | – | – | –
Oc1c(Cl)cc(C(c2cc(Cl)c(O)c(Cl)c2)C(c2cc(Cl)c(O)c(Cl)c2)c2cc(Cl)c(O)c(Cl)c2)cc1Cl | 18.8 µM | 10.7 µM | 13.6 µM | – | 12.5 µM | 28.9 µM | 16.3 µM | 11.9 µM | 11.8 µM | 15.8 µM | 4.25 µM | 3.03 µM | 3.45 µM | – | 3 µM | 10.6 µM | 3.68 µM | 3.12 µM | 2.85 µM | 3.18 µM
Cc1cc(N2CCOCC2)nc(N(CCNc2ccnc3cc(Cl)ccc23)Cc2ccco2)n1 | 6.43 µM | 12.4 µM | – | – | 10 µM | > 100 µM | 35.4 µM | – | 53.5 µM | 18.9 µM | 2.34 µM | 3.21 µM | – | – | 3.25 µM | 2.34 µM | 5.58 µM | – | 4.81 µM | 3.15 µM
NC1=NN(c2ccccc2)C(=O)C1C(=O)C(=O)NC1C2CC3CC(C2)CC1C3 (centres undefined) | > 100 µM | > 100 µM | – | > 100 µM | > 100 µM | > 100 µM | > 100 µM | > 100 µM | > 100 µM | – | – | – | – | – | – | – | – | – | – | –
O=[n+]1cnn([O-])c2ccccc21 | 64 µM | > 100 µM | 55.1 µM | > 100 µM | 39.4 µM | 40.7 µM | > 100 µM | – | 40.4 µM | 44.4 µM | – | – | – | – | – | – | – | – | – | –
NCC(=O)Nc1ccc(-n2nc(C(F)(F)F)cc2-c2ccc3c(ccc4ccccc43)c2)cc1 | 3.24 µM | – | 2.66 µM | 2.35 µM | – | 2.89 µM | 3.75 µM | 2.65 µM | 2.18 µM | 2.06 µM | 1.61 µM | – | 1.17 µM | 0.342 µM | – | 1.36 µM | 1.78 µM | 1.34 µM | 0.922 µM | 0.578 µM
Cc1c(NC(=O)CCCl)c(=O)oc2c(C)c3occc(=O)c3cc12 | > 100 µM | > 100 µM | > 100 µM | > 100 µM | – | > 100 µM | > 100 µM | – | > 100 µM | > 100 µM | – | – | – | – | – | – | – | – | – | –
CCC[CH2][Sn]([CH2]CCC)([O]C(=O)c1cc(OC)c(OC)c(OC)c1)[O]C(=O)c1cc(OC)c(OC)c(OC)c1 | 2.83 µM | 2.55 µM | 1.31 µM | – | 2.12 µM | 2.59 µM | 1.56 µM | 2.59 µM | 3.01 µM | – | 1.42 µM | 1.28 µM | 0.3 µM | – | 0.892 µM | 1.22 µM | 0.437 µM | 1.26 µM | 1.45 µM | –
CC(=O)NC(ON1C(=O)COc2ccccc21)C(Cl)(Cl)Cl (centres undefined) | > 100 µM | > 100 µM | > 100 µM | > 100 µM | > 100 µM | > 100 µM | > 100 µM | > 100 µM | > 100 µM | – | – | – | – | – | – | – | – | – | – | –
CC(=O)c1cc2c3c(c1)c1cc4c(cc1c(=O)n3CC2)OCO4 | > 100 µM | > 100 µM | 91.3 µM | 34.9 µM | 53.9 µM | > 100 µM | > 100 µM | > 100 µM | > 100 µM | – | – | – | – | – | – | – | – | – | – | –
Cc1oncc1C(=O)Nc1ccc(C(F)(F)F)cc1 | > 100 µM | > 100 µM | > 100 µM | – | > 100 µM | > 100 µM | > 100 µM | 78.7 µM | > 100 µM | > 100 µM | 68.2 µM | 14.7 µM | 33.3 µM | – | 36 µM | > 100 µM | 42.4 µM | 20.8 µM | 35.8 µM | > 100 µM
COC(=O)C1=C2C3=C(C(=O)c4ccccc4C3=O)N(Cc3ccccc3)C2(OC(C)=O)C=CC1=O (centres undefined) | 34 µM | 39.4 µM | 13.2 µM | – | 32.7 µM | > 100 µM | 76.6 µM | – | – | > 100 µM | 15.2 µM | 9.86 µM | 1.89 µM | – | 10.6 µM | 26.8 µM | 11.8 µM | – | – | 3.73 µM
O=S1Cc2ccccc2CS1 (centres undefined) | 28.3 µM | 24.5 µM | 31.1 µM | 64.4 µM | 28.9 µM | 28.8 µM | 28.3 µM | 29 µM | > 100 µM | – | – | – | – | – | – | – | – | – | – | –
